| SMILES | CH4 permeability | CO2 permeability | H2 permeability | N2 permeability | O2 permeability |
| --- | --- | --- | --- | --- | --- |
| *Oc1c(Br)cc(C(C)(C)c2cc(Br)c(OC(=O)c3cc(C(*)=O)cc(C(C)(C)C)c3)c(Br)c2)cc1Br (repeat unit) | 0.853 Barrer | 21.5 Barrer | 54 Barrer | 0.89 Barrer | 5.63 Barrer |
| *Oc1ccc(C(C)(C)c2ccc(OC(=O)c3cc(C(*)=O)cc(C(C)(C)C)c3)c(C)c2)cc1C (repeat unit) | 0.4 Barrer | 8 Barrer | 27.1 Barrer | 0.393 Barrer | 2.37 Barrer |
| *Nc1ccc(C(C)(C)c2ccc(NC(=O)c3ccc(Oc4cc(C(C)(C)C)c(Oc5ccc(C(*)=O)cc5)cc4C(C)(C)C)cc3)c(C)c2)cc1C (repeat unit) | 0.9 Barrer | 21 Barrer | – | 0.81 Barrer | 4.5 Barrer |
| *CC(*)OCC1CC2CC1C1CCCC21 (repeat unit) | – | 2.85 Barrer | – | 0.13 Barrer | 0.81 Barrer |
| *c1ccc(-c2ccc(N3C(=O)c4ccc([Si](C)(C)c5ccc6c(c5)C(=O)N(*)C6=O)cc4C3=O)c(OC)c2)cc1OC (repeat unit) | – | – | 9.33 Barrer | 0.096 Barrer | 0.53 Barrer |
| *Oc1ccc(C(=O)c2ccccc2-c2ccccc2C(=O)c2ccc(Oc3ccc(C(c4ccc(*)cc4)(C(F)(F)F)C(F)(F)F)cc3)cc2)cc1 (repeat unit) | 0.087 Barrer | 3.12 Barrer | – | 0.146 Barrer | 0.99 Barrer |
| *c1ccc(-c2nnc(-c3ccc(N4C(=O)c5ccc(C(c6ccc7c(c6)C(=O)N(*)C7=O)(C(F)(F)F)C(F)(F)F)cc5C4=O)cc3)o2)cc1 (repeat unit) | 0.25 Barrer | 15.6 Barrer | – | 0.61 Barrer | – |
| *Oc1ccc(C(C)(C)c2ccc(OC(=O)c3cccc(C(=O)Oc4cc(-c5cc(*)cc6ccccc56)c5ccccc5c4)c3)cc2)cc1 (repeat unit) | 0.148 Barrer | 4 Barrer | – | 0.139 Barrer | 0.93 Barrer |
| *c1ccc(Oc2ccc3ccccc3c2-c2c(Oc3ccc(N4C(=O)c5ccc(C(c6ccc7c(c6)C(=O)N(*)C7=O)(C(F)(F)F)C(F)(F)F)cc5C4=O)cc3C)ccc3ccccc23)c(C)c1 (repeat unit) | 0.28 Barrer | 18.4 Barrer | 26.2 Barrer | 0.53 Barrer | 3.35 Barrer |
| *C(=C(*)c1ccc2c(c1)C(C)(C)CC2(C)C)c1ccc(F)cc1 (repeat unit) | 34300 Barrer | 47000 Barrer | 33300 Barrer | 15600 Barrer | 17900 Barrer |
| *Oc1ccc(C23CC4CC(C2)CC(c2ccc(Oc5ccc(S(=O)(=O)c6ccc(*)cc6)cc5)cc2)(C4)C3)cc1 (repeat unit) | 0.396 Barrer | 9.5 Barrer | 27.8 Barrer | 0.455 Barrer | 2.55 Barrer |
| *CC(*)c1ccncc1 (repeat unit) | 0.14 Barrer | 3.31 Barrer | 12.6 Barrer | 0.13 Barrer | 0.84 Barrer |
| *C(C)=C(*)CCC (repeat unit) | 21 Barrer | 120 Barrer | 160 Barrer | 12 Barrer | 39 Barrer |
| *C(=C(*)c1ccc2c(c1)C(C)(C)CC2(C)C)c1ccccc1 (repeat unit) | 29100 Barrer | 38700 Barrer | 24800 Barrer | 11600 Barrer | 14400 Barrer |
| *Oc1ccc(S(=O)(=O)c2ccc(Oc3ccc4cc(*)ccc4c3)cc2)cc1 (repeat unit) | 0.0366 Barrer | 1.5 Barrer | 7.25 Barrer | 0.0507 Barrer | 0.38 Barrer |
| *Oc1c(C)cc(C(C)(C)c2cccc(C(C)(C)c3cc(C)c(Oc4ccc(S(=O)(=O)c5ccc(*)cc5)cc4)c(C)c3)c2)cc1C (repeat unit) | 0.28 Barrer | 7 Barrer | 20 Barrer | 0.281 Barrer | 1.8 Barrer |
| *c1cc(C)c(C)c(N2C(=O)c3ccc(Oc4cc(C)ccc4Oc4ccc5c(c4)C(=O)N(*)C5=O)cc3C2=O)c1C (repeat unit) | 0.57 Barrer | 22 Barrer | 41 Barrer | 0.65 Barrer | 3.9 Barrer |
| *CC(*)c1ccc(F)cc1 (repeat unit) | 1.06 Barrer | 17.2 Barrer | – | 0.83 Barrer | 4.4 Barrer |
| *CC(*)F (repeat unit) | – | 0.0791 Barrer | 0.35 Barrer | – | – |
| *Oc1c(C)cc(*)c(C(=O)c2ccc(Cl)cc2)c1C (repeat unit) | 0.98 Barrer | 16.8 Barrer | – | 1.8 Barrer | 8.6 Barrer |
| *C(=C(*)c1ccc2c(c1)C(C)(C)c1ccccc1-2)c1cc(F)cc(F)c1 (repeat unit) | 4200 Barrer | 9200 Barrer | 5000 Barrer | 1700 Barrer | 2700 Barrer |
